Results on one compound are retold here after patent US20110214196A1, “DEVELOPMENT OF HERBICIDE-RESISTANT GRASS SPECIES” (University of Georgia Research Foundation, priority 2008, published 2011).

Assay [1] deals with callus tissue generated from the variety 'Seaspray'. In words: Callus growth dose response to sethoxydim. Format: cell-based, seashore paspalum (Paspalum vaginatum). Conditions: growth averaged over three consecutive 3-week subcultures. On the procedure:
The dose response of paspalum tissue in culture to sethoxydim rate was determined using callus tissue generated from the variety ‘Seaspray’ as a model cultivar. Effect of sethoxydim concentration on callus growth was determined by placing callus tissue from ‘Seaspray’ on MS/B5 medium (Murashige and Skoog. 1962. supra; Gamborg et al. 1968. supra) containing 2 mg/L 2-4,D and one of eight concentrations of sethoxydim. Herbicide rates were replicated 6 times and included concentrations of 0, 2.5, 5, 7.5, 10, 25, 50, and 100 μM sethoxydim. Sethoxydim was diluted in methanol and added after the autoclaved medium was cooled to approximately 55° C. (in order to prevent loss of activity from heat degradation). The medium was protected from photo-degradation by wrapping containers in aluminum foil prior to storage.
To measure callus growth, 0.5 gram of callus tissue was weighed, separated into nine equal pieces and placed in a 3×3 pattern on the solid medium of each plate. Six replicate plates for each of the eight sethoxydim concentrations was distributed on a rack in a growth room in a completely randomized design. At 21 days after plating, the tissue from each plate was weighed and recorded. For subculture, 0.5 gram from each plate was obtained for the next growth period. This process was continued for nine weeks, providing three growth measurements for each plate. […]

Assay [2] deals with bermudagrass. Put plainly: Controlling weedy species in a plot of bermudagrass and sethoxydim-resistant seashore paspalum. Format: in vivo. On the procedure:
A plot containing both bermudagrass and sethoxydim-resistant seashore paspalum is treated with 150 g a.i. ha^−1 sethoxydim once a week over a period of three months. Over the three month treatment period, it is observed that the bermudagrass slowly dies out while the sethoxydim-resistant paspalum continues to thrive, leaving the plot populated with above 80% sethoxydim-resistant paspalum.
A plot containing both bermudagrass and sethoxydim-resistant seashore paspalum is treated with both 150 g a.i. ha^−1 sethoxydim and 150 g a.i. ha^−1 fenoxaprop once a week over a period of three months. Over the three month treatment period, it is observed that the bermudagrass slowly dies out while the sethoxydim-resistant paspalum continues to thrive, leaving the plot populated with above 80% sethoxydim-resistant paspalum.

As for `CCC/C(=N\OCC)C1=C(O)CC(CC(C)SCC)CC1=O` (stereo not drawn) [sethoxydim, 2-[1-(ethoxyimino)-butyl]-5-[2-(ethylthio)propyl]-3-hydroxy-2-cylohexen-1-one], the “lowest herbicide rate to totally inhibit callus growth” value in assay [1] turned out to be 7.5 µM. For the same compound, the “plot populated with sethoxydim-resistant paspalum; bermudagrass slowly dies out” value in assay [2] (150 g a.i. ha^−1 sethoxydim and 150 g a.i. ha^−1 fenoxaprop once a week over three months) is listed as “above 80%”; in assay [2] (150 g a.i. ha^−1 sethoxydim once a week over three months) it was “above 80%”.
